Experiments:
[1] = OECD 306 biodegradation test, closed bottle method; details: percent of measured COD, no substrate, acidic, non-neutralized form; for BIODEGRADATION by OECD 306 Max, 28 d (%): 28 days; for BIODEGRADATION by OECD 306 Max, 63 d (%): 63 days
Method: Full details of the procedure and methods of calculation are publicly available in OECD documents. In all cases, the tests were performed without a substrate and the percent biodegradation was determined as a percentage of the measured chemical oxygen demand (COD).
Each of the datasets presented in Table 1 and FIGS. 2 through 5 were obtained on the products as described in their acidic, non-neutralized forms.

[2] = Scale inhibitor performance, dynamic loop method; details: Field I brine, 128 C, pH 7.7, 10 mL/min; hold time 1 hour
From the text: A number of scale inhibitor performance tests were undertaken using the dynamic loop method. This method is widely used in the oilfield service industry and is designed to evaluate the ability of a candidate scale inhibitor to delay the blockage of a small diameter metal capillary when injected with a scaling brine at constant flow rate under selected test conditions. The test conditions and water compositions are generally selected to represent, at least in-part, the process conditions under which a scale inhibitor might be deployed. The flow rate of the test brine is generally selected to allow the experiment to be performed in a repeatable and controlled manner. […]
Typically, one or more tests without any added scale inhibitor (blank tests) were performed in order to determine the scaling time for the un-inhibited brine under the given test conditions. […] The deposition of scale was monitored by measuring the differential pressure (ΔP) developed across the test capillary over time. […] Alternatively, the concentration of the scale inhibitor can be reduced step-wise and the minimum inhibitor concentration (MIC) required for preventing a given increase in ΔP over a given time period can be determined. […]
To prepare the test water, each water composition was divided into two parts. […] The pH of the individual waters was also measured and adjusted. […]

## O=P(O)(O)CN(CCCCCCN(CP(=O)(O)O)CP(=O)(O)O)CCCCCCN(CP(=O)(O)O)CP(=O)(O)O [BHMTPA, bis(hexamethylene) triamine penta(methylene phosphonic acid)]
[1]
  BIODEGRADATION by OECD 306 Max, 28 d (%): 6%

## O=P(O)(O)CN(CCN(CP(=O)(O)O)CP(=O)(O)O)CCN(CP(=O)(O)O)CP(=O)(O)O [DETA, diethylene triamine penta(methylene phosphonic acid)]
[1]
  BIODEGRADATION by OECD 306 Max, 28 d (%): 0%
[1]; listed as Phosphonate 1
  BIODEGRADATION by OECD 306 Max, 28 d (%): 0%
[2]
  MIC Field I (ppm): 6-8 ppm

## O=P(O)(O)CN(CCO)CP(=O)(O)O [MEA, monoethanolamine bis(methylene phosphonic acid)]
[1]
  BIODEGRADATION by OECD 306 Max, 28 d (%): 6%
  BIODEGRADATION by OECD 306 Max, 63 d (%): 3%

## O=P(O)(O)CN(CCN(CCN(CP(=O)(O)O)CP(=O)(O)O)CP(=O)(O)O)CCN(CP(=O)(O)O)CP(=O)(O)O [TETHMPA, tri-ethylene tetra amine hexa(methylene phosphonic acid)]
[1]
  BIODEGRADATION by OECD 306 Max, 28 d (%): 0%

## BAEE
[1]
  BIODEGRADATION by OECD 306 Max, 28 d (%): 0%
  BIODEGRADATION by OECD 306 Max, 63 d (%): 5%

Source: US9296631B2, “Preparation of environmentally acceptable scale inhibitors” (Ecolab USA Inc., priority 2008, dated 2016)
